A melting point compilation (Tetko et al.; mined from patent text by program, amines drawn as free bases though some values may be those of a salt)

| SMILES | melting point |
| --- | --- |
| Nc1ccccc1-c1csc2nc(C34CC5CC(CC(C5)C3)C4)cn12 | 160 to 162 °C |
| COC(=O)c1cccc(NC(N)=NC#N)c1 | 203 to 204 °C |
| CSCCOC(=O)CSc1cc(N=c2sc(=O)n3n2CCCC3)ccc1Cl | 57 to 58 °C |
| c1ccc(C2Cn3c(nc4cc5ccccc5cc43)S2)nc1 (stereo not given) | 198 °C |
| O=C(O)C(Br)C(O)c1cccc([N+](=O)[O-])c1 (stereo not given) | 124 to 125 °C |
| Cc1c(C(=O)O)cnn1-c1nc(-c2cccc(C(F)(F)F)c2)cs1 | 227 to 228 °C |
| COc1cc(C(N)=O)ccc1-c1nc2cc3c(cc2[nH]1)NC(=O)C3(C)C | 265 to 270 °C |
| COc1cc(Nc2c(C#N)cnc3cc(Cl)c([N+](=O)[O-])cc23)c(C)cc1Cl | 217 to 219 °C |
| C#Cc1cccc(Oc2nc(Cl)nc(Oc3cccc(C#C)c3)n2)c1 | 121 to 125 °C |
| Cn1c(C=O)cc2cccc(F)c21 | 61 to 63 °C |
| CC(=O)ON1C(C)(C)CC(OC(=O)CCCCCCCCC(=O)OC2CC(C)(C)N(OC(C)=O)C(C)(C)C2)CC1(C)C | 81 to 94 °C |
| CCSC1CN2CCC1CC2 (stereo not given) | 101 to 102 °C |
| CN(C=O)CC1(N2CCCCC2)CCCCC1 | 94 °C |
| C=CCn1c(=O)c(C(=O)OCC)c(N2CCN(C(=O)c3cccs3)CC2)c2cccnc21 | 89 to 96 °C |
| CCCCCCCCCCCCCCCCS(=O)(=O)NCCc1ccc(C(=O)O)cc1 | 168 to 169 °C |
| CC(=O)Nc1ccc(-n2ccnc2SCc2ccccc2N2CCOCC2)nc1 | 164 to 167 °C |
| Nc1nc(C(F)(F)F)c(-c2ccncc2)cc1C(=O)O | > 283 °C |
| CC(=S)NCC1CN(c2ccc(N3CCC4(CC3)NC(=O)NC4=O)c(F)c2)C(=O)O1 (stereo not given) | 218 °C |
| Cn1nnnc1SCCCCSc1ccccn1 | 49 to 51.5 °C |
| CN1Cc2c(C(N)=S)ncn2-c2ccccc2C1=O | 295 to 297 °C |
| CCCCCn1c2c(c3ccc(OC)cc31)CN(S(=O)(=O)c1cccc3c(N(C)C)cccc13)CC2 | 71 to 72 °C |

The next lines start with the values.

| melting point | SMILES |
| --- | --- |
| 162 to 165 °C | CS(=O)(=O)NCc1ccc2[nH]cc(CCN3C(=O)c4ccccc4C3=O)c2c1 |
| 74 to 77 °C | COc1ccc(C(=O)c2ccccc2F)c(Cl)c1Cl |
| 179 to 181 °C | CCOC(=O)c1c(-c2ccncc2)[nH]c(-c2ccccc2)c1C |
| 128 to 130 °C | Cc1cc(-c2noc(C(F)(F)F)n2)cc(C)c1OCCCc1ccc(=O)[nH]c1 |
| 101 to 103 °C | O=C(O)C=C(C(=O)c1ccc(Cl)c(Cl)c1)c1ccccc1 |
| 144 to 145 °C | Cn1cc(-c2ccc3c(ccn3-c3ccc(F)cc3)c2)cn1 |
| 232 to 234 °C | CCCn1c(=O)c2nc(C(=O)O)cn2c2ccccc21 |
| 139 to 141 °C | N#CCc1ccc(-c2ccc(C(CC3CCOCC3)c3ccc(S(=O)(=O)C4CC4)cc3)[nH]2)nc1 (stereo not given) |
| 170 °C | COc1ccc(CCN(C)CCCCc2ccc(NC(=O)c3cccc4c(=O)c5cccc(OC)c5[nH]c34)cc2)cc1OC |
| 144 to 146 °C | Cc1ccc(C(C)n2[nH]c(C)cc2=O)cc1 (stereo not given) |
| 155 to 156 °C | O=C1c2ccccc2C(=O)N1CCc1cc(-c2ccc(F)cc2)no1 |
| 104 to 105 °C | COCCNC(=O)c1cccc(-c2cccc3cc(Cc4ccc(Cl)s4)sc23)c1 |
| 157 to 161 °C | O=C(c1ccco1)n1sc2ccccc2c1=O |
| 164 to 166 °C | CS(=O)(=O)c1ccc(-n2nc(C(F)(F)F)cc2-c2ccc(-c3cocn3)cc2)cc1F |
| 227 to 229 °C | Clc1ccc(Cn2c(-c3ccccn3)nc3ccccc32)cc1Cl |
| 80 to 81 °C | CCOC(=O)C(Cc1ccc(O)cc1)Oc1ccc(F)cc1 (stereo not given) |
| 112 °C | Clc1ccccc1-c1cnc(-c2ccccc2Cl)nc1 |
| 85 to 90 °C | Nc1ccccc1CNC(=O)C1Cc2ccccc2N1S(=O)(=O)c1ccc(-c2ccc(F)cc2Cl)cc1 (stereo not given) |
| 197 °C | O=C1Nc2cccnc2N(C(=O)CCC#CCN2CCCCC2)c2ccccc21 |
